Measured values: patent US12077503B2, “Substituted cyclic amides and their use as herbicides” (FMC CORPORATION, priority 2015, dated 2024)

How the values were obtained:
Assay type in all cases: in vivo
[1] = system: ragweed (common ragweed, Ambrosia elatior); test: Test A postemergence; settings: postemergence; for Ragweed plant response rating: 125 g ai/ha, visual injury rating on 0 to 100 scale (0 no effect, 100 complete control), approx. 10 d; for Plant response rating, Ragweed: 500 g ai/ha, 0 to 100 scale, 0 no effect, 100 complete control
In short: (§1)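 Ratings of 0 (no effect) to 100 (complete control) come from visual comparison with untreated controls roughly 10 d after treatment. Test chemicals, formulated in a non-phytotoxic solvent mixture with surfactant, were applied either as a preemergence directed soil spray on seeded soil or postemergence to one- to two-leaf plants 2 to 10 cm tall.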

[2] = system: Galium (catchweed bedstraw, Galium aparine); test: Test A postemergence; settings: postemergence; for Galium plant response rating: 125 g ai/ha, visual injury rating on 0 to 100 scale (0 no effect, 100 complete control), approx. 10 d; for Plant response rating, Galium: 500 g ai/ha, 0 to 100 scale, 0 no effect, 100 complete control
In short: as §1

[3] = system: barnyardgrass (Echinochloa crus-galli); test: Test A postemergence; settings: postemergence; for Barnyardgrass plant response rating: 125 g ai/ha, visual injury rating on 0 to 100 scale (0 no effect, 100 complete control), approx. 10 d; for Plant response rating, Barnyardgrass: 500 g ai/ha, 0 to 100 scale, 0 no effect, 100 complete control
In short: as §1

[4] = system: blackgrass (Alopecurus myosuroides); test: Test A postemergence; settings: postemergence; for Blackgrass plant response rating: 125 g ai/ha, visual injury rating on 0 to 100 scale (0 no effect, 100 complete control), approx. 10 d; for Plant response rating, Blackgrass: 500 g ai/ha, 0 to 100 scale, 0 no effect, 100 complete control
In short: as §1

[5] = system: wheat (Triticum aestivum); test: Test A postemergence; settings: postemergence; for Wheat plant response rating: 125 g ai/ha, visual injury rating on 0 to 100 scale (0 no effect, 100 complete control), approx. 10 d; for Plant response rating, Wheat: 500 g ai/ha, 0 to 100 scale, 0 no effect, 100 complete control
In short: as §1

Kochia (Kochia scoparia) [6] = test: Test A postemergence; settings: postemergence; for Kochia plant response rating: 125 g ai/ha, visual injury rating on 0 to 100 scale (0 no effect, 100 complete control), approx. 10 d; for Plant response rating, Kochia: 500 g ai/ha, 0 to 100 scale, 0 no effect, 100 complete control
In short: as §1

[7] = system: ryegrass, Italian (Italian ryegrass, Lolium multiflorum); test: Test A postemergence; settings: postemergence; for Ryegrass, Italian plant response rating: 125 g ai/ha, visual injury rating on 0 to 100 scale (0 no effect, 100 complete control), approx. 10 d; for Plant response rating, Ryegrass, Italian: 500 g ai/ha, 0 to 100 scale, 0 no effect, 100 complete control
In short: as §1

[8] = system: giant foxtail (Setaria faberii); test: Test A postemergence; settings: postemergence; for Foxtail, Giant plant response rating: 125 g ai/ha, visual injury rating on 0 to 100 scale (0 no effect, 100 complete control), approx. 10 d; for Plant response rating, Foxtail, Giant: 500 g ai/ha, 0 to 100 scale, 0 no effect, 100 complete control
In short: as §1

[9] = system: pigweed (Amaranthus retroflexus); test: Test A postemergence; settings: postemergence; for Pigweed plant response rating: 125 g ai/ha, visual injury rating on 0 to 100 scale (0 no effect, 100 complete control), approx. 10 d; for Plant response rating, Pigweed: 500 g ai/ha, 0 to 100 scale, 0 no effect, 100 complete control
In short: as §1

corn (Zea mays) = test: Test A postemergence; settings: postemergence; for Corn plant response rating: 125 g ai/ha, visual injury rating on 0 to 100 scale (0 no effect, 100 complete control), approx. 10 d; for Plant response rating, Corn: 500 g ai/ha, 0 to 100 scale, 0 no effect, 100 complete control
In short: as §1

[10] = system: ragweed (common ragweed, Ambrosia elatior); test: Test A preemergence; settings: for Plant response rating, Ragweed: 125 g ai/ha, preemergence, 0 to 100 scale (0 no effect, 100 complete control); for Ragweed plant response rating (0 to 100 scale, 0 is no effect, 100 is complete control): Preemergence, 500 g ai/ha, visual injury approx. 10 d
In short: as §1

[11] = system: barnyardgrass (Echinochloa crus-galli); test: Test A preemergence; settings: for Plant response rating, Barnyardgrass: 125 g ai/ha, preemergence, 0 to 100 scale (0 no effect, 100 complete control); for Barnyardgrass plant response rating (0 to 100 scale, 0 is no effect, 100 is complete control): Preemergence, 500 g ai/ha, visual injury approx. 10 d
In short: as §1

Kochia (Kochia scoparia) [12] = test: Test A preemergence; settings: for Plant response rating, Kochia: 125 g ai/ha, preemergence, 0 to 100 scale (0 no effect, 100 complete control); for Kochia plant response rating (0 to 100 scale, 0 is no effect, 100 is complete control): Preemergence, 500 g ai/ha, visual injury approx. 10 d
In short: as §1

[13] = system: ryegrass, Italian (Italian ryegrass, Lolium multiflorum); test: Test A preemergence; settings: for Plant response rating, Ryegrass, Italian: 125 g ai/ha, preemergence, 0 to 100 scale (0 no effect, 100 complete control); for Ryegrass, Italian plant response rating (0 to 100 scale, 0 is no effect, 100 is complete control): Preemergence, 500 g ai/ha, visual injury approx. 10 d
In short: as §1

[14] = system: giant foxtail (Setaria faberii); test: Test A preemergence; settings: for Plant response rating, Foxtail, Giant: 125 g ai/ha, preemergence, 0 to 100 scale (0 no effect, 100 complete control); for Foxtail, Giant plant response rating (0 to 100 scale, 0 is no effect, 100 is complete control): Preemergence, 500 g ai/ha, visual injury approx. 10 d
In short: as §1

[15] = system: pigweed (Amaranthus retroflexus); test: Test A preemergence; settings: for Plant response rating, Pigweed: 125 g ai/ha, preemergence, 0 to 100 scale (0 no effect, 100 complete control); for Pigweed plant response rating (0 to 100 scale, 0 is no effect, 100 is complete control): Preemergence, 500 g ai/ha, visual injury approx. 10 d
[16] = system: barnyardgrass (Echinochloa crus-galli); test: Test B flooded paddy test; settings: Flood, 500 g ai/ha; 0 to 100 scale where 0 is no effect and 100 is complete control; 13 to 15 d
In short: (§2)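 Visual ratings (0 none to 100 complete control) are relative to untreated plants, taken 13–15 d after treatment in a greenhouse. Test material went straight into floodwater standing 3 cm above the soil, kept constant, on plants at the 2-leaf stage.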

rice (Oryra sativa) = test: Test B flooded paddy test; settings: Flood, 500 g ai/ha; 0 to 100 scale where 0 is no effect and 100 is complete control; 13 to 15 d
In short: as §2

[17] = system: sedge, umbrella (small-flower umbrella sedge, Cyperus difformis); test: Test B flooded paddy test; settings: Flood, 500 g ai/ha; 0 to 100 scale where 0 is no effect and 100 is complete control; 13 to 15 d
In short: as §2

[18] = system: ducksalad (Heteranthera limosa); test: Test B flooded paddy test; settings: Flood, 500 g ai/ha; 0 to 100 scale where 0 is no effect and 100 is complete control; 13 to 15 d
In short: as §2

SMILES | Ragweed plant response rating [1] | Plant response rating, Ragweed [1] | Galium plant response rating [2] | Plant response rating, Galium [2] | Barnyardgrass plant response rating [3] | Plant response rating, Barnyardgrass [3] | Blackgrass plant response rating [4] | Plant response rating, Blackgrass [4] | Wheat plant response rating [5] | Plant response rating, Wheat [5] | Kochia plant response rating (Kochia (Kochia scoparia) [6]) | Plant response rating, Kochia (Kochia (Kochia scoparia) [6]) | Ryegrass, Italian plant response rating [7] | Plant response rating, Ryegrass, Italian [7] | Foxtail, Giant plant response rating [8] | Plant response rating, Foxtail, Giant [8] | Pigweed plant response rating [9] | Plant response rating, Pigweed [9] | Corn plant response rating (corn (Zea mays)) | Plant response rating, Corn (corn (Zea mays)) | further results
O=C1NCC(c2ccc(F)c(F)c2)C1C(=O)Nc1ccc(Cl)cc1F (stereo not drawn) [Compound 410] | 0 | 0 | 0 | 0 | 20 | 50 | 0 | 20 | 0 | 0 | 0 | 0 | 0 | 0 | 0 | 40 | 0 | 20 | 0 | 0 | Plant response rating, Ragweed [10]: 0; Ragweed plant response rating (0 to 100 scale, 0 is no effect, 100 is complete control) [10]: 0; Plant response rating, Barnyardgrass [11]: 50; Barnyardgrass plant response rating (0 to 100 scale, 0 is no effect, 100 is complete control) [11]: 60; Plant response rating, Kochia (Kochia (Kochia scoparia) [12]): 0; Kochia plant response rating (0 to 100 scale, 0 is no effect, 100 is complete control) (Kochia (Kochia scoparia) [12]): 0; Plant response rating, Ryegrass, Italian [13]: 0; Ryegrass, Italian plant response rating (0 to 100 scale, 0 is no effect, 100 is complete control) [13]: 0; Plant response rating, Foxtail, Giant [14]: 70; Foxtail, Giant plant response rating (0 to 100 scale, 0 is no effect, 100 is complete control) [14]: 80; Plant response rating, Pigweed [15]: 0; Pigweed plant response rating (0 to 100 scale, 0 is no effect, 100 is complete control) [15]: 20; Plant response rating, Barnyardgrass [16]: 0; Plant response rating, Rice (rice (Oryra sativa)): 0; Plant response rating, Sedge, Umbrella [17]: 0; Plant response rating, Ducksalad [18]: 30
Cc1cc(NC(=O)C2C(=O)NCC2c2ccc(F)c(F)c2)ccc1C(F)(F)F (stereo not drawn) [Compound 414] | 0 | 0 | 0 | 0 | 0 | 0 | 0 | 0 | 0 | 0 | 0 | 10 | 0 | 0 | 0 | 0 | 0 | 0 | 0 | 0 | Plant response rating, Ragweed [10]: 0; Ragweed plant response rating (0 to 100 scale, 0 is no effect, 100 is complete control) [10]: 0; Plant response rating, Barnyardgrass [11]: 0; Barnyardgrass plant response rating (0 to 100 scale, 0 is no effect, 100 is complete control) [11]: 0; Plant response rating, Kochia (Kochia (Kochia scoparia) [12]): 0; Kochia plant response rating (0 to 100 scale, 0 is no effect, 100 is complete control) (Kochia (Kochia scoparia) [12]): 0; Plant response rating, Ryegrass, Italian [13]: 0; Ryegrass, Italian plant response rating (0 to 100 scale, 0 is no effect, 100 is complete control) [13]: 0; Plant response rating, Foxtail, Giant [14]: 0; Foxtail, Giant plant response rating (0 to 100 scale, 0 is no effect, 100 is complete control) [14]: 10; Plant response rating, Pigweed [15]: 0; Pigweed plant response rating (0 to 100 scale, 0 is no effect, 100 is complete control) [15]: 0; Plant response rating, Barnyardgrass [16]: 0; Plant response rating, Rice (rice (Oryra sativa)): 0; Plant response rating, Sedge, Umbrella [17]: 0; Plant response rating, Ducksalad [18]: 40
